The record followed here is patent publication EP4268819A1 (priority 2022, dated 2023).

Read-outs that look alike come from different tables or passages of the source.

Data set [1] deals with SARS-CoV-2 clinical omicron isolate.
Data set [2] shares this test system. The data set is described as follows: microbe, parasite or virus in culture. Particulars: Severe acute respiratory syndrome coronavirus 2, Calu-3.

`COc1[nH]c(=O)c(C(=O)[C@@H](C)C[C@H](C)[C@@H](Cl)CCl)c(O)c1OC` [Atpenin A5, atpenin A5]: the “Therapeutic range: CC50/IC50 (CTG)” value in data set [1] (SARS-CoV-2 omicron in Calu-3 cells, CC50 by CTG) is “CTG: 1.3”. Besides, in data set [1] (SARS-CoV-2 omicron in Calu-3 cells, CC50 by IncuCyte), the “Therapeutic range: CC50/IC50 (IncuCyte)” value is recorded as “IncuCyte: > 117.6”. For the same molecule, the “Therapeutic range: CC50/IC50 (MTT)” value in data set [1] (SARS-CoV-2 omicron in Calu-3 cells, CC50 by MTT) was “MTT: 1.8”.

As for `[H]/N=C(/N)N/C(=N/[H])NCCc1ccccc1` [Phenformin], in data set [1] (human, calu-3 cells), the “Therapeutic range: CC50/IC50 (CTG)” value is listed as “CTG: 1674”, the “Therapeutic range: CC50/IC50 (IncuCyte)” value was “IncuCyte: 1111” and the “Therapeutic range: CC50/IC50 (MTT)” value was “MTT: 1123”. In addition, half-maximal inhibition in data set [2] (IC50) was put at 1.35 µM.

As usually defined, the IC50 is the midpoint of a concentration-inhibition curve. Low values mean higher potency, high ones lower potency.
